Measurements taken from ChEMBL document CHEMBL6092203, “Discovery of Novel PROTAC-Based HPK1 Degraders with High Potency and Selectivity for Cancer Immunotherapy” (J Med Chem, 2024).
The source made the active and inactive calls. The calls are words filed in the database; no cut-off is given here.

Key:
[1] = Toxicity in Sprague-Dawley rat assessed as no observable adverse effect level measured after 14 days; conditions: in vivo, time 14 day
Jurkat = test: Effect on SLP76 total protein expression in human Jurkat cells at 1 to 2000 nM incubated for 24 hrs by Western blotting assay; format: functional, cell-based; conditions: dose 1-2000 nM
MC-38 [2] = test: Antitumor activity against mouse MC38 cells implanted in C57BL/6J mouse assessed as tumor weight inhibition rate at 0.5 mg/kg, po BID measured after 4 weeks; format: functional; design: scale not given: the % may be the effect or the level left
MC-38 [3] = test: Antitumor activity against mouse MC38 cells implanted in C57BL/6J mouse assessed as tumor growth inhibition at 100 mg/kg, po QD administered for 4 weeks; format: functional; conditions: MC-38, 672 h, read-out: TGI
in vivo [4] = conditions: female, Sprague-Dawley, rat, po, 100 mg/kg
[5] = Initial plasma concentration in Sprague-Dawley rat at 2 mg/kg, iv measured upto 24 hrs by LC-MS analysis; format: ADME, organism-based
in vitro [6] = conditions: dog, liver microsomes
[7] = Metabolic stability in human hepatocytes assessed as intrinsic clearance at 1 uM incubated for 90 mins by LC-MS/MS method; format: ADME, cell-based, Hepatocyte; conditions: 1.5 h
in vivo [8] = conditions: male, Sprague-Dawley, rat, po, 30 mg/kg
[9] = Drug distribution in rat brain measured after 2 hrs; format: ADME, tissue-based; conditions: in vivo
[10] = AUC(0 to 24 hrs) in male Sprague-Dawley rat at 100 mg/kg/day, po measured at day 1; format: ADME, organism-based; conditions: in vivo, time 1 day
[11] = AUCinfinity in Beagle dog at 5 mg/kg, po measured upto 24 hrs by LC-MS analysis; format: ADME, organism-based, Canis lupus familiaris; conditions: in vivo
MC-38 [12] = test: Antitumor activity against mouse MC38 cells implanted in C57BL/6J mouse assessed as tumor growth inhibition at 0.5 mg/kg, po BID measured after 4 weeks; format: functional; conditions: MC-38, 672 h, read-out: TGI
in vivo [13] = conditions: male, Sprague-Dawley, rat, po, 30 mg/kg; remark: listed apart in the source
hERG (KCNH2) = hERG (KCNH2) (Homo sapiens, UniProt Q12809); test: Inhibition of human ERG at 3 uM by patch clamp method relative to control; format: toxicity
hERG (KCNH2), sequence (Q12809 whole entry): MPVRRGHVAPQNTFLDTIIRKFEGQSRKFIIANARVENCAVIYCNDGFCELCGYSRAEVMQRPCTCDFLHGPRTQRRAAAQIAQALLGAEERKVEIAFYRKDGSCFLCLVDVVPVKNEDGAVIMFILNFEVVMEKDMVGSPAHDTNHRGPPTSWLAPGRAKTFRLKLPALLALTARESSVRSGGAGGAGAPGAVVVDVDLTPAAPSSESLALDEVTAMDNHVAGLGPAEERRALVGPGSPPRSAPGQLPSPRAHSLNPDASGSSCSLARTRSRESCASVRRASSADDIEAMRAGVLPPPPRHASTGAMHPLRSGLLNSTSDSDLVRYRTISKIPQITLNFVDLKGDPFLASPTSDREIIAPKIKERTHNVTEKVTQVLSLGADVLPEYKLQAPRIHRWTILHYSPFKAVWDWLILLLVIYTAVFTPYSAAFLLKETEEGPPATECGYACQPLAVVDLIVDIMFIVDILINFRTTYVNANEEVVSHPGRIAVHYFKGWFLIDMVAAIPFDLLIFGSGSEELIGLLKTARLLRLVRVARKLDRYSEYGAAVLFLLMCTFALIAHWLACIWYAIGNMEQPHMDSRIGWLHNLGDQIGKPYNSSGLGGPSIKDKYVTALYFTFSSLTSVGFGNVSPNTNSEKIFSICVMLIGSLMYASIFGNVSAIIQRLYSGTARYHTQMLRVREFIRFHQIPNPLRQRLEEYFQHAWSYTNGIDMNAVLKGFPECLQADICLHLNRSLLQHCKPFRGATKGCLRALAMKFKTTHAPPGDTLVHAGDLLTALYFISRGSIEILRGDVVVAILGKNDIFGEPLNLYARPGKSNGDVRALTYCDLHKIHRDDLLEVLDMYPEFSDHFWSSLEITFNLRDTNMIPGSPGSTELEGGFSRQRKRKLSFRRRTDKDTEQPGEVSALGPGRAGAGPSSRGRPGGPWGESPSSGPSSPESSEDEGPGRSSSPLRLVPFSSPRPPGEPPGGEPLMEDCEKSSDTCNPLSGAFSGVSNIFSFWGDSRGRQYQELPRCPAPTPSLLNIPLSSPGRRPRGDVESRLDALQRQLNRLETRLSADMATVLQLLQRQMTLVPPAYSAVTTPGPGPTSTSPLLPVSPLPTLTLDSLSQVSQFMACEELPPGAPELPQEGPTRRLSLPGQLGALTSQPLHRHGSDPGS

[14] = Drug distribution in rat gastrointestinal tract measured after 0.5 to 6 hrs; format: ADME, tissue-based; conditions: in vivo, time 0.5-6 hrs
[15] = AUCinfinity in C57BL/6J mouse at 2 mg/kg, iv measured upto 24 hrs by LC-MS analysis; format: ADME, organism-based; conditions: in vivo
MC-38 [16] = test: Antitumor activity against mouse MC38 cells implanted in C57BL/6J mouse assessed as tumor weight inhibition rate at 100 mg/kg, po QD administered for 4 weeks; format: functional; design: scale not given: the % may be the effect or the level left
[17] = Toxicity in Sprague-Dawley rat assessed as no observable adverse effect level exposure measured after 14 days; conditions: in vivo, 336 h, time 14 day
in vivo [18] = conditions: female, Sprague-Dawley, rat, po, 30 mg/kg
MC-38 [19] = test: Antitumor activity against mouse MC38 cells implanted in C57BL/6J mouse assessed as reduction in tumor volume at 1 mg/kg, po BID administered for 3 to 4 weeks (reference value: 1549.22 +/- 217.92 mm3); format: functional; conditions: time 3-4 weeks
[20] = Effect on action potential in rabbit purkinje fibers; format: toxicity, tissue-based, Oryctolagus cuniculus, Purkinje fiber
MC-38 [21] = test: Synergistic antitumor activity against mouse MC38 cells implanted in C57BL/6J mouse assessed as tumor growth inhibition at 0.5 mg/kg, po bid measured after 4 weeks in presence of 5 mg/kg anti-PD1 and measured twice a week; format: functional; conditions: MC-38, 672 h, read-out: TGI
MC-38 [22] = test: Synergistic antitumor activity against mouse MC38 cells implanted in C57BL/6J mouse assessed as reduction in tumor weight at 100 mg/kg, po QD administered for 3 to 4 weeks in presence of 5 mg/kg anti-PD1 and measured twice a week (reference value: 1.79 +/- 0.24 g); format: functional; conditions: time 3-4 weeks
Cytochrome P450 2C8 = biological target: T1, Cytochrome P450 2C8 (Homo sapiens, UniProt P10632); test: Inhibition of CYP2C8 in human liver microsomes using amodiaquine as substrate in presence of NADPH; format: ADME, Microsome
T1 sequence (P10632 whole entry): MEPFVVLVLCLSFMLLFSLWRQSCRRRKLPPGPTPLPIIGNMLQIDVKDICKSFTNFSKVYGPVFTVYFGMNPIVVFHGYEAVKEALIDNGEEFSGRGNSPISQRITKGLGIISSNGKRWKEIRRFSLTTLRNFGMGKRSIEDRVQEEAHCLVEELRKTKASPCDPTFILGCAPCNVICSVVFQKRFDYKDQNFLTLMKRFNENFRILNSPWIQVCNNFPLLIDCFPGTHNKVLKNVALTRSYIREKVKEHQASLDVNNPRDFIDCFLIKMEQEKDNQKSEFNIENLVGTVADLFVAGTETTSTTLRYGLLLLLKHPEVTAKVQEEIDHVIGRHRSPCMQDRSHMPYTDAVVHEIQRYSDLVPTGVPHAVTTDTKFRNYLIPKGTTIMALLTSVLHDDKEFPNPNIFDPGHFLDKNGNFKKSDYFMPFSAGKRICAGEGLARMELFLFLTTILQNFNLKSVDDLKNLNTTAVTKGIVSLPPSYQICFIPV

[23] = Clearance in Beagle dog at 1 mg/kg, iv measured upto 24 hrs by LC-MS analysis; conditions: in vivo
MC-38 [24] = test: Antitumor activity against mouse MC38 cells implanted in C57BL/6J mouse assessed as reduction in tumor volume at 0.5 mg/kg, po BID administered for 3 to 4 weeks (reference value: 1549.22 +/- 217.92 mm3); format: functional; conditions: time 3-4 weeks
[25] = Tmax in male Sprague-Dawley rat at 30 mg/kg/day, po measured at day 14; format: ADME, organism-based; conditions: in vivo, time 14 day
[26] = Drug distribution in rat lung measured after 0.5 to 6 hrs; format: ADME, tissue-based; conditions: in vivo, time 0.5-6 hrs
in vitro [27] = conditions: human, hepatocytes
in vivo [28] = conditions: female, Sprague-Dawley, rat, po, 30 mg/kg; remark: listed apart in the source
MC-38 [29] = test: Synergistic antitumor activity against mouse MC38 cells implanted in C57BL/6J mouse assessed as reduction in tumor volume at 100 mg/kg, po QD administered for 3 to 4 weeks in presence of 5 mg/kg anti-PD1 and measured twice a week (reference value: 1549.22 +/- 217.92 mm3); format: functional; conditions: time 3-4 weeks
[30] = Induction of p-SLP76 at Ser376 protein degradation in human Jurkat cells incubated for 24 hrs by Western blotting analysis; format: cell-based
MC-38 [31] = test: Antitumor activity against mouse MC38 cells implanted in C57BL/6J mouse assessed as reduction in tumor weight at 1 mg/kg, po BID administered for 3 to 4 weeks (reference value: 1.79 +/- 0.24 g); format: functional; conditions: time 3-4 weeks
[32] = biological target: Protein cereblon/Mitogen-activated protein kinase kinase kinase kinase 1 (Homo sapiens, UniProt Q92918+Q96SW2); test: PROTAC activity at CRBN/HPK1 in human Jurkat cells assessed as HPK1 degradation at 0.01 uM pretreated with MG132 for 4 hrs followed by compound addition and measured after 24 hrs by Western blotting analysis; format: cell-based
Protein cereblon/Mitogen-activated protein kinase kinase kinase kinase 1, sequence (Q92918 whole entry, looked up): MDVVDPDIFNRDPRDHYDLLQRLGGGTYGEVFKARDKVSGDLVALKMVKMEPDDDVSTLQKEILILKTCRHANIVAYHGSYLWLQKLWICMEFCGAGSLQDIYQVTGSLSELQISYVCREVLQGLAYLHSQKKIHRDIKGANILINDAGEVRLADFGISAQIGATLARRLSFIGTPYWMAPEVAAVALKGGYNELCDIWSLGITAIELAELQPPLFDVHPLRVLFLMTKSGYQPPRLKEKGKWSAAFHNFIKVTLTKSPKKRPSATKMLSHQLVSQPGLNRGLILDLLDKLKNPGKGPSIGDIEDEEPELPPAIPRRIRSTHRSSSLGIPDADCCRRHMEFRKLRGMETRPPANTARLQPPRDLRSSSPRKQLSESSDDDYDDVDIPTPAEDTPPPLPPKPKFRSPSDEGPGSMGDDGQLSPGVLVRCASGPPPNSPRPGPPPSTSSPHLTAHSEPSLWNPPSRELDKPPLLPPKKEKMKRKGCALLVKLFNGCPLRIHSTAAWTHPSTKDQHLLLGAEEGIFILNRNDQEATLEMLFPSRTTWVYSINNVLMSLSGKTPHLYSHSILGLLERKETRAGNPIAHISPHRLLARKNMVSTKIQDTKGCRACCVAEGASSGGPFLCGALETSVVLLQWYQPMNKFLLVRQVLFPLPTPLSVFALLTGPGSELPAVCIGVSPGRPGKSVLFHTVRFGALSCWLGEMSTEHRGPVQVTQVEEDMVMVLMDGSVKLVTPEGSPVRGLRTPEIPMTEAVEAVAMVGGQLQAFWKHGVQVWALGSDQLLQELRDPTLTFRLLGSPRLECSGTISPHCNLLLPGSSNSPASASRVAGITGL
Protein cereblon/Mitogen-activated protein kinase kinase kinase kinase 1, sequence (Q96SW2 whole entry, looked up): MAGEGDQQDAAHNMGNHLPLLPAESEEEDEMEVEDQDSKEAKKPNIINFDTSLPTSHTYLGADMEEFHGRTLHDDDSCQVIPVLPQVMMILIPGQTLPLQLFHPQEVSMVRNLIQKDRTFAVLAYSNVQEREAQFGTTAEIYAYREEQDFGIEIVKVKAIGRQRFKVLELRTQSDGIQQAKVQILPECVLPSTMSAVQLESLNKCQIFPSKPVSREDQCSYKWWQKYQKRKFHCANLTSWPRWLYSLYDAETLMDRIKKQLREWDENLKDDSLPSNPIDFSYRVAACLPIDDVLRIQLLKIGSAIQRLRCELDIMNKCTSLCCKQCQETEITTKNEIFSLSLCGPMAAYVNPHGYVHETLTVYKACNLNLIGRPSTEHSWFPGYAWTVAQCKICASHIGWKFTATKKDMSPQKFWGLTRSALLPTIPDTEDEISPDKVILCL

[33] = Tmax in male Sprague-Dawley rat at 2 mg/kg/day, po measured at day 1; format: ADME, organism-based; conditions: in vivo, time 1 day

For O=C1CCN(c2cc(C(=O)N3CCC(CC4CCN(c5ccc(-c6cnc7[nH]cc(-c8cnn(CC(F)(F)F)c8)c7n6)cn5)CC4)CC3)ccc2Cl)C(=O)N1, the NOAEL at 336 h [1] was 100 mg/kg/day, the Activity (Jurkat) was “inactive” and the Activity (MC-38 [2]) was 42.22%. For the same compound, the inhibition in vivo at 100 mg/kg (MC-38 [3]) was 56.9%, the Cmax at 336 h (in vivo [4]) was 8590 ng/mL and the C0 at 24 h [5] was 3380 ng/mL. The half-life at 0.75 h, 1 µM (in vitro [6]) was 1.14 h, the CLH [7] was 1.92 µL/min/mg and the AUC at 336 h (in vivo [8]) was 38200 ng·h/mL. The Drug uptake [9] was “Active”, the AUC(0-t) at 24 h [10] was 107000 ng·h/mL and the AUC(0-inf) [11] was 796 ng·h/mL. The inhibition in vivo at 0.5 mg/kg (MC-38 [12]) was 51.4%, the Cmax at 24 h (in vivo [13]) was 3560 ng/mL and the inhibition at 3 µM (hERG (KCNH2)) was 4.36%. The Drug uptake [14] was “Active”, the AUC(0-inf) [15] was 5560 ng·h/mL and the Activity (MC-38 [16]) was 48.76%. For the same compound, the NOAEL [17] was 136000 ng·h/mL, the AUC at 336 h (in vivo [18]) was 46000 ng·h/mL and the Activity (MC-38 [19]) was 1277.79 mm3. For the same compound, the Activity [20] was “Non-toxic”, the inhibition in vivo at 0.5 mg/kg (MC-38 [21]) was 91% and the Activity (MC-38 [22]) was 0.3 g. It also gave an IC50 (Cytochrome P450 2C8) greater than 10000 nM, a clearance at 24 h [23] of 17 mL/min/kg and an Activity (MC-38 [24]) of 752.98 mm3. For the same compound, the Tmax [25] was 8 h, the Drug uptake [26] was “Active” and the half-life at 1.5 h, 1 µM (in vitro [27]) was 6.02 h. The Cmax at 336 h (in vivo [28]) was 4210 ng/mL, the Activity (MC-38 [29]) was 139.92 mm3 and the DC50 [30] was 5.63 nM. The Activity (MC-38 [31]) was 1.56 g, the Activity [32] was “inactive” and the Tmax [33] was 8.67 h.
